{"source": "patent US9404080B2", "about": "“Human taste cells capable of continuous proliferation” (B.R.A.I.N. BIOTECHNOLOGY RESEARCH AND INFORMATION NETWORK AG, priority 2012, dated 2016)", "key": {"[1]": {"test_system": "human taste cells BR-HTC8", "test": "Fluo-4 fluorescent calcium imaging assay in BR-HTC8; as to Fluo-4 assay BR-HTC8: key: + indicates that the analysis was successful and that the mRNA was detected by RT-PCR or that stimulation of human taste cells with the respective taste molecule resulted in a dose-dependent increase in intracellular calcium or decrease in cellular membrane potential", "assay_type": "cell-based", "protocol": "Before the assay, cells are maintained in HTC medium for at least 48 hours as described in Example 1. Cells are then trypsinized with accutase (e.g. PAA, L11-007) or TrypLE (e.g. Gibco, 12563) and seeded into poly-D-lysine coated 96-well assay plates (e.g. Corning) at a density of 15,000 cells/well in 100 μl HTC medium.\nAfter 24 hours, the cells (still in 100 μl medium) are stained by addition of 100 μl of Fluo-4 staining solution, which consists of KH buffer (10 mM HEPES pH7.4 containing 118 mM NaCl, 4.7 mM KCl, 4.2 mM NaHCO3, 1.2 mM KH2PO4, 1.2 mM MgSO4, 1.3 mM CaCl2) containing 4 μM Fluo-4 (Molecular Probes) and incubation for 1 hour at 37° C. Final Fluo-4 concentration in the staining solution/medium mixture is 2 μM. Staining solution is then replaced by 80 μl KH-buffer per well and plates are transferred into a fluorescence microplate reader to monitor changes in Ca^2+-dependent fluorescence (excitation 488 nm, emission 530 nm) after the addition of 20 μl KH-buffer supplemented with the test molecule under investigation. The test molecule was added 16 seconds after starting the scan and baseline recording, mixed twice, and then recording continued for additional 44 seconds. Data points of a total of 18 reads were collected. Data analysis/Data recording—Calcium mobilization was measured as the change of peak fluorescence (ΔF) over the baseline level (F). Data were expressed as the mean S.E. of the ΔF/F value of replicated independent samples. Data analysis was done with software provided by the manufacturer of the microplate reader (e.g. Molecular Devices).\n(§1) To test, whether stimulation of human taste cells with these taste molecules leads to changes in intracellular calcium the Fluo-4 fluorescent calcium imaging assay was performed as described above. Non-taste cells including HEK293 cells and non-lingual, proliferating primary cells isolated from the oral cavity served as a control and were treated equally throughout the procedure. Changes in Ca^2+-dependent Fluo-4 fluorescence were recorded on a Molecular Devices Fluorescence microplate reader. Measurement was started by addition of increasing concentrations of the taste molecules in KH-buffer to the cells. KH-buffer served as negative control and KH-buffer containing 1 μM ionomycin served as a positive control. […] Calcium signals for each test molecule are depicted as Relative Fluorescence Units (RFU), which means that calcium mobilization in response to taste molecules was calculated dF/F0, with dF is (peak fluorescence F1−baseline fluorescence F0). […] Data were obtained from several independent experiments and performed in triplicates.\nIn order to perform to the Fluo-4 fluorescent calcium imaging experiment in the absence of extracellular Ca^2+ the procedure was conducted as described above, however, the KH-buffer was prepared without addition of Ca^2+. Measurement was started by addition of increasing concentrations of the taste molecules in KH-buffer without Ca^2+ to the cells. KH-buffer without Ca^2+ served as negative control and KH-buffer without Ca^2+ containing 1 μM ionomycin served as a positive control.\nTo test, whether stimulation of human taste cells with oxytocin leads to changes in intracellular calcium the Fluo-4 fluorescent calcium imaging assay was performed as described above in Example 5. Briefly, the human taste cells were seeded in 96-well plates and stained with 2 μM of the calcium-sensitive fluorescence dye Fluo4 in HTC/KH buffer medium for one hour at 37° C. with subsequent replacement of the staining solution with KH-buffer. Non-taste cells including HEK293 cells and non-lingual, proliferating primary cells isolated from the oral cavity served as a control and were treated equally throughout the procedure. Changes in Ca^2+-dependent Fluo-4 fluorescence were recorded on a Molecular Devices Fluorescence microplate reader."}, "[2]": {"test_system": "human taste cells BR-HTC8", "test": "FLIPR fluorescent membrane potential (FMP) imaging assay in BR-HTC8", "assay_type": "cell-based", "settings": "BR-HTC8, increasing concentrations in KH-buffer", "protocol": "This cell depolarization was measured by using voltage-sensitive dyes including FLIPR fluorescent membrane potential (FMP) dye (Molecular Devices R8123). Before the assay, cells were maintained in HTC medium for at least 48 hours as described above in Example 1. Cells were then trypsinized with accutase (e.g. PAA, L11-007) or TrypLE (e.g. Gibco, 12563) and seeded into poly-D-lysine coated 96-well assay plates (Corning) at a density of 15,000 cells/well in […].\nAfter 24 hours, medium was removed and the cells are washed once with 100 μl KH buffer (10 mM HEPES pH7.4 containing 118 mM NaCl, 4.7 mM KCl, 4.2 mM NaHCO3, 1.2 mM KH2PO4, 1.2 mM MgSO4, 1.3 mM CaCl2) and then stained with 200 μl KH buffer containing FLIPR FMP dye according instructions of the manufacturer […] and incubation for 2 hours at 37° C. The plates were then transferred into a fluorescence microplate reader to monitor changes in membrane potential-dependent fluorescence (excitation 530 nm, emission 565 nm) after the addition of 50 μl KH-buffer supplemented with the test molecule under investigation. The test molecule was added 16 seconds after starting the scan and baseline recording, mixed twice, and then recording continued for additional 74 seconds. Data points of a total of 35 reads were collected.\nData analysis/Data recording—Changes of the membrane potential was measured as the change of peak fluorescence (ΔF) over the baseline level (F). Data were expressed as the mean S.E. of the ΔF/F value of replicated independent samples. Data analysis was done with software provided by the manufacturer of the microplate reader (Molecular Devices).\n(§2) To test, whether stimulation of human taste cells with taste molecules leads to changes in cellular membrane potential the FLIPR fluorescent membrane potential assay was performed as described above. Non-taste cells including HEK293 cells and non-lingual, proliferating primary cells isolated from the oral cavity served as a control and were treated equally throughout the procedure. Changes in membrane potential were recorded on a Molecular Devices Fluorescence microplate reader. Measurement was started by addition of increasing concentrations of the taste molecules in KH-buffer to the cells. KH-buffer served as negative control and KH-buffer containing 4 μM FCCP (e.g. Sigma, C2920) served as a positive control. […] Data were obtained from several independent experiments and performed in triplicates.\nas §2, with “This cell depolarization can be measured by using voltage-sensitive dyes including FLIPR fluorescent membrane potential (FMP) dye (Molecular Devices R8123) as described above in Example 6. To” for “To”, “oxytocin” for “taste molecules”, “oxytocin” for “the taste molecules”"}, "[3]": {"test_system": "BR-HTC38 cells", "test": "Fluo-4 fluorescent calcium imaging assay in TAS2R38-transduced BR-HTC38", "assay_type": "cell-based, human", "settings": "BR-HTC38 (TAS2R38 expressed) vs BR-HTC8", "protocol": "Changes in Ca^2+-dependent Fluo-4 fluorescence were recorded on a Molecular Devices fluorescence microplate reader. Measurement was started by addition of increasing concentrations of the taste molecules in KH-buffer to the cells. KH-buffer served as negative control and KH-buffer containing 1 μM ionomycin served as a positive control. […] Calcium signals for each test molecule are depicted as Relative Fluorescence Units (RFU), which means that calcium mobilization in response to taste molecules was calculated dF/F0, with dF is (peak fluorescence F1−baseline fluorescence F0). […] Data were obtained from several independent experiments and performed in triplicates."}, "[4]": {"test_system": "Non-taste cells including HEK293 cells, Cal33 cells, and non-lingual, proliferating primary cells isolated from the oral cavity", "test": "Fluo-4 fluorescent calcium imaging assay in non-taste control cells", "assay_type": "cell-based, human", "protocol": "Briefly, human taste cells were seeded in 96-well plates and stained with Fluo4-AM. Non-taste cells including HEK293 cells, Cal33 cells, and non-lingual, proliferating primary cells isolated from the oral cavity served as a control. Changes in Ca^2+-dependent Fluo-4 fluorescence were recorded on a Molecular Devices fluorescence microplate reader. Measurement was started by addition of increasing concentrations of the taste molecules. […] Calcium signals for each test molecule are depicted as relative fluorescence units (RFU).\nas §1"}}, "note": "“Also recorded” adds a separate entry of the source."}
{"smiles": "OCc1ccccc1O[C@@H]1O[C@H](CO)[C@@H](O)[C@H](O)[C@H]1O", "note": "[Salicin]", "values": [{"measurement": "change of Fluo4-fluorescence / intracellular calcium on addition of the test molecule", "setting": "[1]; BR-HTC8, increasing concentrations in KH-buffer with Ca2+", "value": "dose-dependent increase of Fluo4-fluorescence"}, {"measurement": "Fluo-4 calcium response in the absence of extracellular Ca2+", "setting": "[1]; KH-buffer without Ca2+, BR-HTC8, molecule alone", "value": "increase of intracellular calcium; also recorded: dose-dependent increase of Fluo4-fluorescence"}, {"measurement": "Fluo-4 assay BR-HTC8", "setting": "[1]; dose-dependent increase in intracellular calcium on stimulation with the cognate bitter molecule of the TAS2R named in the row", "value": "+"}, {"measurement": "change of cellular membrane potential (FLIPR FMP dye fluorescence) on addition of the test molecule", "setting": "[2]", "value": "did not elicit significant changes in cellular membrane potential"}, {"measurement": "dose-dependent Fluo-4 calcium response in BR-HTC38 compared with parental BR-HTC8", "setting": "[3]", "value": "enhanced"}, {"measurement": "increase of Fluo4-fluorescence in control cells", "setting": "[4]", "value": "not in control cells"}]}
